The record followed here is patent US8586591B2, “Aminopyrazine derivative and medicine” (Nippon Shinyaku Co., Ltd., priority 2009, dated 2013).

One assay has as its target T1, JAK3 tyrosine kinase (Homo sapiens, UniProt P52333).
T1 construct: purchased Carnabioscience Co
T1 sequence (P52333 1-1124): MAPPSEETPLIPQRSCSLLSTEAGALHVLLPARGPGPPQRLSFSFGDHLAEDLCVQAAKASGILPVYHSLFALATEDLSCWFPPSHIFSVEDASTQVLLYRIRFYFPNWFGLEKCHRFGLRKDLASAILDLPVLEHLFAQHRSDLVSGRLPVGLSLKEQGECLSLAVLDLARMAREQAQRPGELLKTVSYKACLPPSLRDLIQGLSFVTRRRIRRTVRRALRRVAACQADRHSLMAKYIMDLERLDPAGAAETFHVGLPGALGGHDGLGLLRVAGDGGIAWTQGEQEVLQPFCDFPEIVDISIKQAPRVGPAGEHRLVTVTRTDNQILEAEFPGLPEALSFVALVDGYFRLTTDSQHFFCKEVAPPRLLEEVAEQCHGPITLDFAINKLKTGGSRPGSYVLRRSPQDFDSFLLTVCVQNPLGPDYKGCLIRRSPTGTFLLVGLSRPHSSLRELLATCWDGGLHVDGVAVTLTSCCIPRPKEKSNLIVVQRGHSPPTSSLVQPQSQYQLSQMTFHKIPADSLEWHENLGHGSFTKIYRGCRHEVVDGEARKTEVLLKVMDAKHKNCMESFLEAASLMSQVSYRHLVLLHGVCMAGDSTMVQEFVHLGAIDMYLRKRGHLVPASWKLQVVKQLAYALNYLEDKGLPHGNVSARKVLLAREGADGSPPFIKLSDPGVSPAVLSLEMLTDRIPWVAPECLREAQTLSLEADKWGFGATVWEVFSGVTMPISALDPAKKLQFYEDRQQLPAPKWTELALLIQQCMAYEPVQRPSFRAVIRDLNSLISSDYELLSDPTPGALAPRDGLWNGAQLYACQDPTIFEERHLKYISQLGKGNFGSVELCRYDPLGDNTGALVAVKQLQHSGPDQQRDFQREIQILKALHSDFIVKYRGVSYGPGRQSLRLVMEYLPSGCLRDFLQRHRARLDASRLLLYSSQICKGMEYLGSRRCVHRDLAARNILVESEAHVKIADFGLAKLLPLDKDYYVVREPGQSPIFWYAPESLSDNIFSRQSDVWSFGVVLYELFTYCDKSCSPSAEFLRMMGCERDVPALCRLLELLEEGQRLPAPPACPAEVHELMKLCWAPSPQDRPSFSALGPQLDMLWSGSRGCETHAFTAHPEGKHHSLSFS
As to the kind of experiment: Test 1: inhibitory activity to JAK3 tyrosine kinase (ELISA). It counts as biochemical. The following applies: 25 μM ATP in substrate solution, 30° C. for 1 hour, n=2. Summed up: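 ELISA of JAK3 kinase activity with absorbance read at 450 nm. Compounds were tested from DMSO dilution series at 100-fold the measurement concentrations (1000–0.01 μM), diluted up to 20 times in assay buffer, against a DMSO negative control. IC50 was estimated by non-linear regression of absorbance.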
On the technique in general: In an ELISA, binding on a coated surface is turned into a signal by an enzyme label.

The target of a further assay is T2, JAK2 tyrosine kinase (Homo sapiens, UniProt O60674).
T2 construct: purchased Carnabioscience Co
T2 sequence (O60674 whole entry): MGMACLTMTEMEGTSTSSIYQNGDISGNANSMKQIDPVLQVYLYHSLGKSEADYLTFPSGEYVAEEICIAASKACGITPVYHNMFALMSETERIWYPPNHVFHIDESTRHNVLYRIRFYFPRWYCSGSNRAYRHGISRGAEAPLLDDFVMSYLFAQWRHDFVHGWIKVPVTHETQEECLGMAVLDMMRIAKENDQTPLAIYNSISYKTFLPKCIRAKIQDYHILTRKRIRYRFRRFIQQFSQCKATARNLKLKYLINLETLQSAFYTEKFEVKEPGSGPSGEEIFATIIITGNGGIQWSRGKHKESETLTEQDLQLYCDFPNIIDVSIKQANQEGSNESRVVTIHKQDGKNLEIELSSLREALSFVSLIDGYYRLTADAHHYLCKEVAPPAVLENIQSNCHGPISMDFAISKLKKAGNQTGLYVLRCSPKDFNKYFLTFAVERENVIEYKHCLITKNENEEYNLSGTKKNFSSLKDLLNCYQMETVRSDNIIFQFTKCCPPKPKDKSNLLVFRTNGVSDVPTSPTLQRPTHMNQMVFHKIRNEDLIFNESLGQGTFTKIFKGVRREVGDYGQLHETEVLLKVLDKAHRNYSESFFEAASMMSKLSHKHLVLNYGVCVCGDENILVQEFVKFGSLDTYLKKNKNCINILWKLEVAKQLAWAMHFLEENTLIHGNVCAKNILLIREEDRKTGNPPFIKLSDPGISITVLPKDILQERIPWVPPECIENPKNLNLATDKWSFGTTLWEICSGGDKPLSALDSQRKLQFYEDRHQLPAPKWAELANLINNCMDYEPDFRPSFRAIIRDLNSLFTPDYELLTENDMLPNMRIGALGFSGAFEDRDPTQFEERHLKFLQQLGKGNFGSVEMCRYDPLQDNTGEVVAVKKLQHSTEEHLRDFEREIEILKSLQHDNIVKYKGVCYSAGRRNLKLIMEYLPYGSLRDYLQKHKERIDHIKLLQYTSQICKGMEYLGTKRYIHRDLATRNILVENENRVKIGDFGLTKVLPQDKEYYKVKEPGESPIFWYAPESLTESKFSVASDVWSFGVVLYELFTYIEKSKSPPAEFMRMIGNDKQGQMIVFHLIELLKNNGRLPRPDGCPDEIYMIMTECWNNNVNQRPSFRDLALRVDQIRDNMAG
As to the kind of experiment: Test 1: inhibitory activity to JAK2 tyrosine kinase (ELISA). It counts as biochemical. Particulars: 25 μM ATP in substrate solution, 30° C. for 1 hour, n=2. Summed up: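 This is an ELISA read at A450 (HRP anti-phosphotyrosine antibody, TMB) of biotin-peptide phosphorylation captured on streptavidin. Enzyme solution was 0.75 nM JAK2, and the substrate solution was 625 nM peptide with 25 μM ATP in Tris pH 7.5 buffer. The reaction ran 1 h at 30 °C with compounds in duplicate, and IC50 was fitted non-linearly.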

Counter-ions that a name gives are not always drawn.

By IC50 is commonly meant the concentration that gives 50% inhibition. Read a high IC50 as weaker potency in that assay. Regarding `C[C@H](Nc1nc(Nc2cnccn2)cc(N2CCC(C(=O)O)CC2)n1)c1ccc(F)cc1` [Example 85, (S)-1-{2-[1-(4-Fluorophenyl)ethylamino]-6-(pyrazin-2-ylamino)pyrimidin-4-yl}piperidine-4-carboxylic acid], the IC50 turned out to be 20 nM against JAK3 tyrosine kinase and 0.51 nM at JAK2 tyrosine kinase.

On to `C[C@H](Nc1cc(N2CCOCC2)cc(Nc2cnccn2)n1)c1ccc(F)cc1` [Example 39, (S)—N^2-[1-(4-Fluorophenyl)ethyl]-4-morpholine-N^6-(pyrazin-2-yl)pyridine-2,6-diamine], for which the IC50 was found to be 90 nM against JAK3 tyrosine kinase and 0.93 nM at JAK2 tyrosine kinase.

Consider `CCOC(=O)C1CCN(c2cc(Nc3cnccn3)nc(N[C@@H](C)c3ccc(F)cc3)n2)CC1` [Example 83, Ethyl (S)-1-{2-[1-(4-fluorophenyl)ethylamino]-6-(pyrazin-2-ylamino)pyrimidin-4-yl}piperidin-4-carboxylate], for which the results for the IC50 against JAK3 tyrosine kinase and on JAK2 tyrosine kinase were 58 nM and 3.7 nM, respectively.

With `CC(=O)NCCNc1cc(Nc2cnccn2)nc(N[C@@H](C)c2ccc(F)cc2)n1` [Example 78, (S)—N-(2-{2-[1-(4-Fluorophenyl)ethylamino]-6-(pyrazin-2-ylamino)pyrimidin-4-ylamino}ethyl) acetamide hydrochloride], the results for the IC50 against JAK3 tyrosine kinase and against JAK2 tyrosine kinase were 35 nM and 1.4 nM, respectively.

On to `C[C@H](Nc1cc(N2CC(N3CCC(O)CC3)C2)cc(Nc2cnccn2)n1)c1ccc(F)cc1` [Example 234, (S)-1-(1-{2-[1-(4-Fluorophenyl)ethylamino]-6-(pyrazin-2-ylamino)pyridin-4-yl}azetidin-3-yl)piperidin-4-ol], for which the IC50 against JAK3 tyrosine kinase turned out to be 170 nM; against JAK2 tyrosine kinase, 5.4 nM.

Turning to `C[C@H](Nc1cc(-c2cnn(CC3CC3)c2)cc(Nc2cnccn2)n1)c1ccc(F)cc1` [Example 48, (S)-4-[1-(Cyclopropylmethyl)-1H-pyrazol-4-yl]-N^2-[1-(4-fluorophenyl)ethyl]-N^6-(pyrazin-2-yl)pyridine-2,6-diamine], the IC50 turned out to be 140 nM on JAK3 tyrosine kinase and 6 nM on JAK2 tyrosine kinase.

On to `C[C@H](Nc1nc(Nc2cnccn2)cc(N2CCCC(O)C2)n1)c1ccc(F)cc1` (stereo partly drawn) [Example 73, 1-{2-[(S)-1-(4-Fluorophenyl)ethylamino]-6-(pyrazin-2-ylamino)pyrimidin-4-yl}piperidin-3-ol hydrochloride], for which the half-maximal inhibitory concentration (IC50) is 48 nM against JAK3 tyrosine kinase and 1.3 nM against JAK2 tyrosine kinase.

As to `C[C@H](Nc1cc(-c2cc[nH]n2)cc(Nc2cnccn2)n1)c1ccc(F)cc1` [Example 29, (S)—N^2-[1-(4-Fluorophenyl)ethyl]-N^6-(pyrazin-2-yl)-4-(1H-pyrazol-3-yl)pyridine-2,6-diamine], the IC50 at JAK3 tyrosine kinase turned out to be 160 nM; against JAK2 tyrosine kinase, 2 nM.

Consider `C[C@H](Nc1nc(Nc2cnccn2)cc(N2CCC(C(=O)NS(C)(=O)=O)CC2)n1)c1ccc(F)cc1` [Example 122, (S)-1-{2-[1-(4-Fluorophenyl)ethylamino]-6-(pyrazin-2-ylamino)pyrimidin-4-yl}-N-(methylsulfonyl)piperidine-4-carboxamide], for which the half-maximal inhibitory concentration (IC50) turned out to be 30 nM on JAK3 tyrosine kinase and 0.4 nM against JAK2 tyrosine kinase.

As to `C[C@H](Nc1nc(Nc2cnccn2)cc(OCCN(C)C)n1)c1ccc(F)cc1` [Example 89, (S)-6-[2-(Dimethylamino)ethoxy]-N^2-[1-(4-fluorophenyl)ethyl]-N^4-(pyrazin-2-yl)pyrimidine-2,4-diamine dihydrochloride], the values for the IC50 against JAK3 tyrosine kinase and against JAK2 tyrosine kinase were 150 nM and 3.8 nM, respectively.

Regarding `C[C@H](Nc1nc(Nc2cnccn2)ccc1C(=O)N1CCOCC1)c1ccc(F)cc1` [Example 188, (S)-{2-[1-(4-Fluorophenyl)ethylamino]-6-(pyrazin-2-ylamino)pyridin-3-yl}(morpholino)methanone dihydrochloride], the results for the IC50 at JAK3 tyrosine kinase and against JAK2 tyrosine kinase were 120 nM and 3.7 nM, respectively.

For `C[C@H](Nc1nc(Nc2cnccn2)cc(-c2cncc(C#N)c2)n1)c1ccc(F)cc1` [Example 74, (S)-5-{2-[1-(4-Fluorophenyl)ethylamino]-6-(pyrazin-2-ylamino)pyrimidin-4-yl}nicotinonitrile], the IC50 against JAK3 tyrosine kinase was 230 nM; against JAK2 tyrosine kinase it was 3.8 nM.

Regarding `C[C@H](Nc1nc(Nc2cnccn2)ccc1C(=O)N(C)C)c1ccc(F)cc1` [Example 186, (S)-2-[1-(4-Fluorophenyl)ethylamino]-N,N-dimethyl-6-(pyrazin-2-ylamino) nicotinamide], the IC50 against JAK3 tyrosine kinase was 240 nM; on JAK2 tyrosine kinase, 5.5 nM.

On to `C[C@H](Nc1nc(Nc2cnccn2)cc(-c2ccnc(F)c2)n1)c1ccc(F)cc1` [Example 93, (S)—N^2-[1-(4-Fluorophenyl)ethyl]-6-(2-fluoropyridin-4-yl)-N^4-(pyrazin-2-yl)pyrimidine-2,4-diamine], for which the IC50 was 220 nM against JAK3 tyrosine kinase and 3 nM on JAK2 tyrosine kinase.

Take `C[C@H](Nc1nc(NCc2cccnc2)cc(Nc2cnccn2)n1)c1ccc(F)cc1` [Example 107, (S)—N^2-[1-(4-Fluorophenyl)ethyl]-N^4-(pyrazin-2-yl)-N^6-(pyridin-3-ylmethyl)pyrimidine-2,4,6-triamine]: the IC50 was 56 nM on JAK3 tyrosine kinase and 0.77 nM against JAK2 tyrosine kinase.

Take `Cc1cnc(Nc2cc(-c3cnn(C)c3)cc(N[C@@H](C)c3ccc(F)cc3)n2)cn1` [Example 214, (S)—N^2-[1-(4-Fluorophenyl)ethyl]-4-(1-methyl-1H-pyrazol-4-yl)-N^6-(5-methylpyrazin-2-yl)pyridine-2,6-diamine]: the IC50 came to 380 nM against JAK3 tyrosine kinase and 5.5 nM at JAK2 tyrosine kinase.

As to `C[C@H](Nc1nc(NCC(N)=O)cc(Nc2cnccn2)n1)c1ccc(F)cc1` [Example 79, (S)-2-{2-[1-(4-Fluorophenyl)ethylamino]-6-(pyrazin-2-ylamino)pyrimidin-4-ylamino}acetamide hydrochloride], the half-maximal inhibitory concentration (IC50) at JAK3 tyrosine kinase is 140 nM; against JAK2 tyrosine kinase, 4.3 nM.

Take `COc1ccc(-c2cc(Nc3cnccn3)nc(N[C@@H](C)c3ccc(F)cc3)c2)cn1` [Example 6, (S)—N^2′-[1-(4-Fluorophenyl)ethyl]-6-methoxy-N^6′-(pyrazin-2-yl)-3,4′-bipyridine-2′,6′-diamine]: the IC50 against JAK3 tyrosine kinase turned out to be 500 nM; against JAK2 tyrosine kinase it was 5.7 nM.

For `C[C@H](Nc1nc(Nc2cnccn2)cc(N2CC(NS(C)(=O)=O)C2)n1)c1ccc(F)cc1` [Example 177, (S)—N-(1-{2-[1-(4-Fluorophenyl)ethylamino]-6-(pyrazin-2-ylamino)pyrimidin-4-yl}azetidin-3-yl)methanesulfonamide], the results for the IC50 against JAK3 tyrosine kinase and against JAK2 tyrosine kinase were 87 nM and 0.74 nM, respectively.

For `COC1CN(c2cc(Nc3cnccn3)nc(N[C@@H](C)c3ccc(F)cc3)n2)C1` [Example 183, (S)—N^2-[1-(4-Fluorophenyl)ethyl]-6-(3-methoxyazetidin-1-yl)-N^4-(pyrazin-2-yl)pyrimidine-2,4-diamine hydrochloride], the IC50 worked out at 59 nM against JAK3 tyrosine kinase and 1.8 nM against JAK2 tyrosine kinase.

Consider `COC1(C2CC2)CN(c2cc(Nc3cnccn3)nc(N[C@@H](C)c3ccc(F)cc3)c2)C1` [Example 211, (S)-4-(3-Cyclopropyl-3-methoxyazetidin-1-yl)-N^2-[1-(4-fluorophenyl)ethyl]-N^6-(pyrazin-2-yl)pyridine-2,6-diamine hydrochloride], for which the IC50 came out at 86 nM on JAK3 tyrosine kinase and 5.6 nM against JAK2 tyrosine kinase.

In the case of `C[C@H](Nc1cc(-c2cnn(Cc3ccccc3)c2)cc(Nc2cnccn2)n1)c1ccc(F)cc1` [Example 113, (S)-4-(1-Benzyl-1H-pyrazol-4-yl)-N^2-[1-(4-fluorophenyl)ethyl]-N^6-(pyrazin-2-yl)pyridine-2,6-diamine], the IC50 at JAK3 tyrosine kinase was 200 nM; at JAK2 tyrosine kinase it was 4.9 nM.

As to `CC(=O)Nc1cc(Nc2cnccn2)nc(N[C@@H](C)c2ccc(F)cc2)c1` [Example 208, (S)—N-{2-[1-(4-Fluorophenyl)ethylamino]-6-(pyrazin-2-ylamino)pyridin-4-yl}acetamide], the IC50 against JAK3 tyrosine kinase worked out at 100 nM; against JAK2 tyrosine kinase it was 1.4 nM.
